The record followed here is patent US11124523B2, “2,6-dioxaspiro [4,5] decane derivatives and preparation method therefor and pharmaceutical applications thereof” (SHANDONG LUYE PHARMACEUTICAL CO., LTD., priority 2017, dated 2021).

Series [1] has as its target hERG potassium channels (Homo sapiens (Human), UniProt Q12809). The experiment in a line: Effects on hERG potassium channels (Qpatch, CHO-hERG cells). In kind it is cell-based. As to conditions: highest test concentration 40 μM, read-out: IC50 representing the blocking effects of hERG potassium currents. The protocol: 5.1 Experimental Purpose: To test the blocking effects of the compounds of the present disclosure on hERG potassium currents.
a. CHO-hERG cells were cultured in a 175 cm^2 culture flask. When the cells were grown to a density of 60 to 80%, the culture solution was removed, and the cells were washed once with 7 mL of PBS (phosphate buffer solution), and then 3 mL of a cell digestion solution (Detachin) was added for digestion of the cells.
b. After completely digested, the cells were neutralized by adding 7 mL of the culture solution and then centrifuged, the supernatant was removed, and then 5 mL of the culture solution was added for resuspension to ensure a cell density of 2 to 5×10^6 cells/mL.
The single-cell high-impedance sealing and whole-cell pattern formation processes were both carried out automatically by the Qpatch instrument. After the whole-cell recording pattern was obtained, the cells were clamped at −80 millivolts. A preceding voltage of −50 millivolts was applied for 50 milliseconds prior to application of a depolarizing stimulus of +40 millivolts for 5 seconds, and then the cells were repolarized to −50 millivolts and maintained for 5 seconds and then returned back to −80 millivolts. This voltage stimulation was applied every 15 seconds, and data were recorded for 2 minutes, and thereafter the extracellular fluid was administered and data were recorded for 5 minutes, and then the administration process was started. The compound was administered for 2.5 minutes at each test concentration from the lowest test concentration. After all the concentrations of the compound were administered, […] of Cisapride was administered as a positive comparative compound. At least three cells (n>3) were tested for each concentration.
a. A 20 mM compound mother solution was diluted with the extracellular fluid, wherein 5 μL of the 20 mM compound mother solution was taken and diluted 500 times to 40 μM by adding 2495 μL of the extracellular fluid thereto, and then 3-fold serial dilutions were performed sequentially in the extracellular fluid containing 0.2% DMSO to obtain a final concentration to be tested.
b. The highest test concentration was 40 μM, and there were six concentrations in total, i.e., 40, 13.33, 4.44, 1.48, 0.49, and 0.16 μM, respectively.
c. The DMSO content in the final test concentration was not more than 0.2%. This concentration of DMSO had no effect on the hERG potassium channel.
The experimental data were analyzed by XLFit software.

The nature of series [2]: Metabolic stability in liver microsomes. Conditions: pH 7.4; human liver microsomes 0.5 mg protein/mL; 45 mg microsome protein/g liver, 20 g liver/kg; read-out: Intrinsic Clearance CLint(liver) in Human Liver. In kind it is in vitro ADME. As to the method:
Test 3: Metabolic Stability in Liver Microsomes
3.1 Experimental Purpose: To test the metabolic stability of the compounds of the present disclosure in human liver microsomes
a. All samples as well as testosterone, diclofenac and propafenone acting as reference substances were dissolved in DMSO to a storage concentration of 10 mM.
b. Intermediate Solution: 5 μL of the substance to be tested or the reference substance was diluted with 45 μL of DMSO (with 450 μL of 1:1 methanol/water).
c. Working Solution: the intermediate solution was diluted with 450 μL of 100 mM potassium phosphate buffer solution (pH 7.4).
Assay Buffer: 100 mM potassium phosphate buffer (pH 7.4) • 10 mM MgCl2
Liver Microsome Solution (final concentration: 0.5 mg protein/mL):
Human liver microsomes, obtained from BD, Cat No. 452117, Lot No. 38291
b. 10 μL of the working solution containing the substance to be tested or the reference substance was added to each of plates (T0, T5, T10, T20, T30, T60, NCF60).
c. The liver microsome solution was dispensed into a 96-well plate in an amount of 680 μL/well, then 80 was added, and then T was added to each of the plates. The above incubation plate was placed at 37° C. and pre-incubated for approximately 10 minutes.
d. 10 μL of 100 mM potassium phosphate buffer was added to each well in the NCF60 plate.
e. After the pre-incubation was finished, the NADPH regeneration system working solution was dispensed into the 96-well plate in an amount of 90 μL/well, and then added to each of the plates in an amount of 10 μL/well to start the reaction.
f. The plates were incubated for an appropriate time (e.g., 5, 10, 20, 30, or 60 minutes).
g. The stop solution (refrigerated at 4° C., containing 100 ng/mL Tolbutamide and 100 ng/mL Labetalol) was added to each sample well in an amount of 300 μL/well.
h. The sample plates were shaken well for about 10 minutes and centrifuged at 4,000 rpm for 20 minutes at 4° C. During the centrifugation, 300 μL of HPLC water was added to each well, and 100 μL of the supernatant was taken for LC-MS/MS analysis.
T1/2 and Clint(mic) were calculated by the following formula: […]
Each gram of liver contained 45 mg of microsome protein, and the liver weight was 20 g/kg in a human.
Ct was the concentration at time t, t was the incubation time, C0 was the concentration at time 0, Ke was an elimination rate constant, Clint(mic) was the intrinsic clearance in liver microsomes, and Clint(liver) was the intrinsic clearance in liver. CLint(mic)=0.693/half-life/mg of microsome protein per mL(concentration of microsomes during incubation) CLint(liver)=CLint(mic)×mg of microsome protein/g of liver weight×a ratio of liver weight to body weight 3.4 Test Results

Series [3] deals with T1, human μ-subtype opioid receptor (hMOR) (Homo sapiens (Human), UniProt P35372). The experiment in a line: MOR cAMP agonist activity test. In kind it is cell-based. Conditions: for Emax: maximum effect of enkephalin DAMGO was 100%. As to the method: Test 1: MOR cAMP Agonist Activity Test
1.1 Experimental Purpose: To test the cAMP agonist activity of the compounds of the present disclosure on the human μ-subtype opioid receptor (hMOR).
a. Compound samples were dissolved in DMSO to a storage concentration of 10 mM.
(§1) b. A series of diluted samples were formulated on a 384-well LDV plate. A total of 11 concentration points were obtained by 3.162-fold gradient dilution.
c. The series of diluted samples were transferred to an experimental plate (Corning-3824) by using an Echo machine, wherein 30 nL was transferred corresponding to each well.
The experiment was performed using a cAMP detection kit from Cisbio (Cisbio #62AM4PEJ).
a. Assay buffer and stimulation buffer (STB) required for the experiment were formulated.
Stimulation Buffer: formulated with the assay buffer, containing 5 μM NKH477 (CAS: 138605-00-2) and 200 μM IBMX (3-isobutyl-1-methylxanthine)
b. […] The number of cells in the well was 10,000 cells/well.
c. The experimental plate was placed in a 37° C. constant-temperature incubator for incubation. The incubation was performed for 40 minutes.
d. A cAMP standard concentration curve was prepared. The first concentration point was at 2848 nM, and a total of sixteen detection concentrations were obtained by 4-fold gradient dilution. There were three replicates for each concentration point.
e. The cAMP detection kit from Cisbio was provided therein with a d2-labeled cAMP reagent (d2 reagent) and an Eu-labeled cAMP antibody reagent (Crypate reagent). The above two reagents were formulated according to the kit instructions, and then added to the sample experimental plate and to the cAMP standard concentration experimental plate, respectively. It was necessary to add 5 μL of the d2 reagent and then 5 μL of the Cryptate reagent to each well.
f. After the experimental plates were left at room temperature for 60 minutes, the experimental plates were read on the Envision.

Series [4] addresses CYP2C9 (Homo sapiens (Human), UniProt P11712). As to the kind of experiment: Inhibition of cytochrome P450 isoenzymes, CYP2C9. The class given is in vitro ADME. Conditions: >50 μM: inhibitory effect less than 50% at 50 μM; read-out: CYP 2C9 IC50. The protocol: (§2) 4.1 Experimental Purpose: To test the inhibitory effects of the compounds of the present disclosure on different isoforms of human cytochrome P450 isoenzymes
(§3) 1) The activities of CYP1A2, 2C9, 2C19, 2D6, and 3A4 were measured using a standard substrate method. In each reaction, the enzyme activities were measured in the presence and absence of the substance to be tested, wherein a single sample was measured at a total of eight test concentrations. A 5-in-1 mixed inhibitor was used.
(§4) 2) An incubation matrix comprising microsomes, a substrate, and an inhibitor or the compound to be tested was pre-incubated at 37° C. for 5 minutes, and then NADPH was added to start the reaction.
(§5) 3) After the incubation, acetonitrile with an internal standard was added to stop the reaction.
(§6) 4) Metabolites generated by the substrates were measured by using the LC-MS/MS method, and the peak area ratio of each metabolite to the internal standard was evaluated and the inhibition rate and IC50 were calculated.

In series [5] the target is T1, human μ-subtype opioid receptor (hMOR). As to the kind of experiment: MOR β-arrestin-2 agonist activity test. In kind it is cell-based. As to conditions: for EC50: >30000 nM = greater than the highest detection concentration, read-out: MOR β-arrestin-2 EC50; for Emax: maximum effect of enkephalin DAMGO was 100%, about 0% = no actual agonist activity. As to the method:
Test 2: β-Arrestin-2 Agonist Activity Test
2.1 Experimental Purpose: To test the β-arrestin-2 agonist activity of the compounds of the present disclosure on the human μ-subtype opioid receptor (hMOR).
a. All samples were dissolved in DMSO to a storage concentration of 10 mM.
as §1
c. The series of diluted samples were transferred to an experimental plate by using an Echo machine, wherein 60 nL of the compound was transferred corresponding to each well.
d. 60 nL of 3.33 mM DAMGO (as HPE) and 60 nL of DMSO (as ZPE) were transferred to the corresponding positions on the experimental plate by using the Echo machine.
The experiment was performed using PathHunter Detection Kit from DiscoveRX Cooperation (DiscoveRX #93-0213C3)
a. Assay buffer and PathHunter detection reagent required for the experiment were formulated.
Assay Buffer: 1×DPBS buffer
PathHunter Detection Reagent: The kit was provided therein with three constituents.
c. The experimental plate was centrifuged at 300 rpm for 30 s and incubated at room temperature for 2 hours.
d. 6 μL of the PathHunter detection reagent was added to each well of the experimental plate.
e. The experimental plate was centrifuged at 300 rpm for 30 seconds, then left at room temperature for 60 minutes, and then read on the Envision.

For series [6], the target named is CYP2D6 (Homo sapiens (Human), UniProt P10635). The experiment in a line: Inhibition of cytochrome P450 isoenzymes, CYP2D6. The class given is in vitro ADME. As to conditions: read-out: CYP 2D6 IC50. The protocol:
as §2, §3, §4, §5, §6

In series [7] the target is CYP2C19 (Homo sapiens (Human), UniProt P33261). The experiment in a line: Inhibition of cytochrome P450 isoenzymes, CYP2C19. In kind it is in vitro ADME. Conditions: >50 μM: inhibitory effect less than 50% at 50 μM; read-out: CYP 2C19 IC50. As to the method: as §2, §3, §4, §5, §6
CYP2C19, sequence (P33261 whole entry): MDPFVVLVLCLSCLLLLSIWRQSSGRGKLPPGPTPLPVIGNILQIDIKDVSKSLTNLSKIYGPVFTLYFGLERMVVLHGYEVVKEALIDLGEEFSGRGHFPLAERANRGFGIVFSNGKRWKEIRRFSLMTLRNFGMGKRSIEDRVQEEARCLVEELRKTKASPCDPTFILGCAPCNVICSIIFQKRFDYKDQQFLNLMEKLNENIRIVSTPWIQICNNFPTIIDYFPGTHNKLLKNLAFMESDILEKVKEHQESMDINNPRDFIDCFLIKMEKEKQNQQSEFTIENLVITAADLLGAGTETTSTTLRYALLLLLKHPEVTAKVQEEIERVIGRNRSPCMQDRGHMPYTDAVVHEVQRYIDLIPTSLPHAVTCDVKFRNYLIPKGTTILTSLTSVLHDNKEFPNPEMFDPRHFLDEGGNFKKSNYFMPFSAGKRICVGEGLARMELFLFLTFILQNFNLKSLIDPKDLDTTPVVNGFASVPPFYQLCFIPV
In series [8] the target is CYP3A4 (Homo sapiens (Human), UniProt P08684). The experiment in a line: Inhibition of cytochrome P450 isoenzymes, CYP3A4. The class given is in vitro ADME. As to conditions: >50 μM: inhibitory effect less than 50% at 50 μM; read-out: CYP 3A4 IC50. As to the method: as §2, §3, §4, §5, §6
CYP3A4, sequence (P08684 whole entry): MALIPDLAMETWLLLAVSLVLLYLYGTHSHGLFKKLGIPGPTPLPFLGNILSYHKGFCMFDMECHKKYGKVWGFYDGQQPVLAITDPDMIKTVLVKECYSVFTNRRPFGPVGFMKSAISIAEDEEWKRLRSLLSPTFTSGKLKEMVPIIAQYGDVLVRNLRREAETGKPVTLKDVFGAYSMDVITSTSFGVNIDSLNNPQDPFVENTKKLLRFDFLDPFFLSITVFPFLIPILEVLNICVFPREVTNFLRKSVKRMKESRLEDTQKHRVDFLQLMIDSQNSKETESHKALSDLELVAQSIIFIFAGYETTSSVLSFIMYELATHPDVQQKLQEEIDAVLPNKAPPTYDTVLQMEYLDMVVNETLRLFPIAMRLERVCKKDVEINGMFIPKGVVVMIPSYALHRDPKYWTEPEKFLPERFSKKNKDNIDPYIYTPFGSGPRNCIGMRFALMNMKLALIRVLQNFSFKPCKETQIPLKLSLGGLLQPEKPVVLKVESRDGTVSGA

Structures can show the parent of a compound that is named as a salt.

CYP2C9, sequence (P11712 whole entry, canonical isoform): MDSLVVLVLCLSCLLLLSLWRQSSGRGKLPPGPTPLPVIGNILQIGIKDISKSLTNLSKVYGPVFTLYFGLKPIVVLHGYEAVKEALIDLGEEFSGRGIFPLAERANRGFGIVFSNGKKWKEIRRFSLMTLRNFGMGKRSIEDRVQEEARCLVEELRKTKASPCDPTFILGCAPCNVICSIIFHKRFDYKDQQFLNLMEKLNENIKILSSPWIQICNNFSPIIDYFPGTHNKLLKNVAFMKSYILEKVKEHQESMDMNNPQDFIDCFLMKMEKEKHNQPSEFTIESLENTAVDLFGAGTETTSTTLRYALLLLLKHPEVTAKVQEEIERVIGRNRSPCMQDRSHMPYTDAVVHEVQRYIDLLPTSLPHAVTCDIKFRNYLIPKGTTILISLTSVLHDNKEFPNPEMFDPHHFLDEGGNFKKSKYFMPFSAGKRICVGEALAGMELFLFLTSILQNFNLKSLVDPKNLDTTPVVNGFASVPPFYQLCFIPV
CYP2D6, sequence (P10635 whole entry): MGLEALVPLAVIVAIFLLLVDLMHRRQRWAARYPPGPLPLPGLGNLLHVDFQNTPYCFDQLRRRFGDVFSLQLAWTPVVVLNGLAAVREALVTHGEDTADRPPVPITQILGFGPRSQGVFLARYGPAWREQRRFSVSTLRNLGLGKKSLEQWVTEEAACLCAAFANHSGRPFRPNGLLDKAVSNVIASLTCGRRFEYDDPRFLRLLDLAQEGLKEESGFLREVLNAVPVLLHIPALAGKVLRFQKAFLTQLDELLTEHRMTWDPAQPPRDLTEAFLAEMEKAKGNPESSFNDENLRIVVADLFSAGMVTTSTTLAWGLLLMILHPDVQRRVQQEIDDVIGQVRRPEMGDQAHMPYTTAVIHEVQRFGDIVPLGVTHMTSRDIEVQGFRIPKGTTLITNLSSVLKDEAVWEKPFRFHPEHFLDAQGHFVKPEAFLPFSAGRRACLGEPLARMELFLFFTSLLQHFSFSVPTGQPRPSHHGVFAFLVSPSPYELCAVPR
hERG potassium channels, sequence (Q12809 whole entry): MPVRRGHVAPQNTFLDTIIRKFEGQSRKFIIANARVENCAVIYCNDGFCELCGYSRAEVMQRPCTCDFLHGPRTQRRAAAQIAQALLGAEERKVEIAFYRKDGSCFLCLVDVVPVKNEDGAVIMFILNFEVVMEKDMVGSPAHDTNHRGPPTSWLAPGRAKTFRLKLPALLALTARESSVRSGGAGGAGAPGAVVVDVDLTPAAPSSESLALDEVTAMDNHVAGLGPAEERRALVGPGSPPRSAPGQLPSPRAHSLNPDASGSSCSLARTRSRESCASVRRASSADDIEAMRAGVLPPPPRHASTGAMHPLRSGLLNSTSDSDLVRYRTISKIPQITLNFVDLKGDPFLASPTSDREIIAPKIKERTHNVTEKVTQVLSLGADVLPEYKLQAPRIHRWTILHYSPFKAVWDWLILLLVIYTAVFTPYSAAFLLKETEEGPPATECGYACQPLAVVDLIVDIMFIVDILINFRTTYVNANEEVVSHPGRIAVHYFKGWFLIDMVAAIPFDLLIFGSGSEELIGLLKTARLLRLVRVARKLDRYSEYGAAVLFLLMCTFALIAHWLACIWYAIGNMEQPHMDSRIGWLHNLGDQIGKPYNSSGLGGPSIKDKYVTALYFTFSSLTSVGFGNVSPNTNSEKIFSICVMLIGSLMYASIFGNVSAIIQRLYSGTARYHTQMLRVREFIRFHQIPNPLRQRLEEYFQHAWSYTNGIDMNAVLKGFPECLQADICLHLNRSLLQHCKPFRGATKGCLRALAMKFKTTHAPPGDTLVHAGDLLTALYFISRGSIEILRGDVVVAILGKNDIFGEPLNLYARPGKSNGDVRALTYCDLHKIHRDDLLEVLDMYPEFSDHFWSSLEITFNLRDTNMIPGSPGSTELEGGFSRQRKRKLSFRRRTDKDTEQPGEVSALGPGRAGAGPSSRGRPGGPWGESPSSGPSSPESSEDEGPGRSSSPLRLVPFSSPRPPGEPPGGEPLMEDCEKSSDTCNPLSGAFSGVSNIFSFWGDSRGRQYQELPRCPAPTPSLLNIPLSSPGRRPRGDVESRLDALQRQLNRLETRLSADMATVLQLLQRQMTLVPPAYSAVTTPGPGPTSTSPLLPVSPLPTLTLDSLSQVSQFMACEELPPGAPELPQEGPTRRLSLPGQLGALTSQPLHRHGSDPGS

Usually IC50 stands for the midpoint of a concentration-inhibition curve. On to `Fc1ccc([C@]2(CCNCc3cccc(Cl)c3)CCO[C@]3(CCOC3)C2)nc1` [Hydrochloride Salt of (+)-16], for which, in series [1], the IC50 is 22.8 µM.

What is called EC50 is the concentration that produces a half-maximal response. The term Emax denotes the greatest response seen or fitted, relative to the assay's reference. For `Cc1cccc(CNCC[C@@]2(c3ccccn3)CCO[C@]3(CCOC3)C2)c1` [(+)-9], the CLint scaled in series [2] is 8.8 mL/min/kg. Besides, the EC50 in series [3] is 0.0061 µM; in series [5], greater than 30 µM. In addition, the Emax in series [3] was 88.9%; in series [5], roughly 0%. In addition, the IC50 was greater than 50 µM in series [4], 23.4 µM in series [6], greater than 50 µM in series [7] and 21.9 µM in series [8].

`Fc1ccnc([C@]2(CCNCc3scc4c3CCC4)CCO[C@]3(CCOC3)C2)c1` [(+)-6]: in series [2], the CLint scaled was 86 mL/min/kg. In series [3], this compound registered an EC50 of 0.0018 µM and an Emax of 86.5%. Moreover, in series [5], the EC50 is greater than 30 µM and the Emax was roughly 0%.

On to `Fc1cc(Cl)cc(CNCC[C@@]2(c3ccccn3)CCO[C@]3(CCOC3)C2)c1` [(+)-18], for which the CLint scaled in series [2] amounted to 84.9 mL/min/kg. Besides, the EC50 was 0.0042 µM in series [3] and greater than 30 µM in series [5]. In addition, the values for the maximal response (Emax) in series [3] and in series [5] were 87.7% and roughly 0%, respectively. Moreover, the IC50 in series [4] was greater than 50 µM; in series [6], 24.5 µM; in series [7], greater than 50 µM; in series [8], greater than 50 µM.

With `Clc1cccc(CNCC[C@@]2(c3ccccn3)CCO[C@]3(CCOC3)C2)c1` [(+)-8], the CLint scaled in series [2] turned out to be 10 mL/min/kg. Also, the results for the EC50 in series [3] and in series [5] were 0.0018 µM and greater than 30 µM, respectively. The Emax in series [3] is 85.3%; in series [5] it was roughly 0%. The IC50 in series [4] was greater than 50 µM; in series [6] it was 17.3 µM; in series [7], greater than 50 µM; in series [8], greater than 50 µM.

With `c1ccc([C@]2(CCNCc3cccc4c3CCCC4)CCO[C@]3(CCOC3)C2)nc1` [(+)-11], the CLint scaled in series [2] was 72.5 mL/min/kg. In series [3], this compound showed an EC50 of 0.0014 µM and an Emax of 87.2%. Besides, in series [5], the EC50 was greater than 30 µM and the Emax is roughly 0%.
